{"source": "paper PMC3781147", "about": "(PLoS ONE, 2013)", "key": {"mesenteric arterioles": {"tested_on": "mesenteric arterioles", "assay": "Intravital microscopy study B: arteriole diameter", "assay_type": "in vivo, rat (male Wistar)", "details": "n=6"}, "mean arterial pressure": {"tested_on": "mean arterial pressure", "assay": "Mean arterial pressure in anesthetised rats (study B)", "assay_type": "in vivo, rat (male Wistar)"}, "mesenteric venules": {"tested_on": "mesenteric venules", "assay": "Intravital microscopy study B: venule diameter", "assay_type": "in vivo, rat (male Wistar)"}, "[1]": {"tested_on": "post-capillary venules (<40 µm)", "assay": "Intravital microscopy study B: macromolecular leak of FITC-BSA", "assay_type": "in vivo, rat (male Wistar)", "details": "n=6"}, "[2]": {"tested_on": "leukocyte rolling in post-capillary venules (<40 µm)", "assay": "Intravital microscopy study B: leukocyte rolling", "assay_type": "in vivo, rat (male Wistar)", "details": "n=6"}, "heart rate": {"tested_on": "heart rate", "assay": "Heart rate in anesthetised rats (study B)", "assay_type": "in vivo, rat (male Wistar)"}, "[3]": {"tested_on": "rat mesenteric microcirculation", "details": "unpublished data within previous studies; cited from earlier work", "description": "Despite this, as part unpublished data within previous studies we also observed vasoconstriction with UFP-101 [9]. Compared to larger blood vessels the mesenteric microcirculation as studied here (<40 µm) receives little neural control. Thu ..."}, "plasma TNF-α and IL-1β": {"tested_on": "plasma TNF-α and IL-1β", "details": "0.03 mg kg^-1 UFP-101; cited from earlier work", "description": "(§1) Only one study has previously utilised the selective NOP antagonist [Nphe^1, Arg^14,Lys^15]"}, "[4]": {"tested_on": "hypothalamic pituitary adrenal stress response", "details": "UFP-101 i.c.v.; cited from earlier work", "description": "as §1"}, "[5]": {"tested_on": "cecal ligation and puncture (CLP) model of sepsis", "details": "0.03 mg kg^-1, rats; improved from approximately 30%; cited from earlier work", "description": "as §1"}, "MAP": {"tested_on": "MAP", "details": "UFP-101 i.c.v.; cited from earlier work", "description": "(§2) Further studies likewise reported no differences in MAP between NOP^-/- and wild-type mice. However, our findings of tachycardia are in contrast to Burmeister & Kapusta. […] In ..."}, "[6]": {"tested_on": "heart rate, renal sympathetic nerve activity, MAP", "details": "300 pmol UFP-101 into PVN, conscious Sprague-Dawley rats; cited from earlier work", "description": "as §2"}, "[7]": {"tested_on": "NOP receptors on rat mesenteric microvascular endothelium", "assay": "Intravital microscopy study A: FITC-N/OFQ binding in mesenteric microcirculation", "assay_type": "in vivo, rat (male Wistar)", "details": "n=5"}}, "data": [{"compound": "lipopolysaccharide [LPS]", "values": [{"measurement": "Arteriole diameter change with LPS", "setting": "mesenteric arterioles; LPS i.v. -24 h and -2 h, p=0.057", "value": "diameter changes in arterioles were not significant"}, {"measurement": "Mean arterial pressure, T40", "setting": "mean arterial pressure; LPS i.v. -24 h 1 mg kg^-1, -2 h 0.5 mg kg^-1, median (interquartile range), n=6, control 105 (95 to 110), p=0.429", "value": 85, "unit": "mmHg"}, {"measurement": "Venule diameter, T40, LPS", "setting": "mesenteric venules; LPS i.v. -24 h and -2 h, median (IQR), n=6, control 19.1 (17.8 to 20.8), p=0.002", "value": 29.1, "unit": "µm"}, {"measurement": "Macromolecular leak, T40, LPS", "setting": "[1]; LPS i.v. -24 h and -2 h, % change in interstitial FITC-BSA fluorescence from baseline, median (IQR), control 5.3 (-5.9 to 11.8), p=0.008", "value": 95.3, "unit": "%"}, {"measurement": "Leukocyte rolling, T40, LPS", "setting": "[2]; LPS i.v. -24 h and -2 h, median (IQR), control 3.0 (0.8 to 3.8), p=0.003", "value": 7.0, "unit": "per min"}, {"measurement": "Heart rate change with LPS, T40", "setting": "heart rate; LPS i.v. -24 h 1 mg kg^-1, -2 h 0.5 mg kg^-1, n=6, p=0.004", "value": "significant increase in heart rate"}]}, {"compound": "[Nphe^1, Arg^14,Lys^15] N/OFQ-NH2 [UFP-101]", "values": [{"measurement": "Arteriole diameter, T40, UFP-101", "setting": "mesenteric arterioles; UFP-101 150 nM kg^-1 i.v. alone (no LPS), median (IQR), control 16.2 (10.9 to 17.7), p=0.004, difference also present initially", "value": 7.1, "unit": "µm"}, {"measurement": "Effect on MAP", "setting": "mean arterial pressure; UFP-101 150 nM kg^-1 i.v. alone (no LPS), n=6", "value": "no significant effect on MAP"}, {"measurement": "Effect on LPS-induced hypotension", "setting": "mean arterial pressure; UFP-101 i.v., LPS rats", "value": "no reversal of the tachycardia or mild hypotension induced by LPS"}, {"measurement": "Vessel constriction", "setting": "[3]", "value": "vasoconstriction"}, {"measurement": "Venule diameter, UFP-101", "setting": "mesenteric venules; UFP-101 150 nM kg^-1 i.v. alone (no LPS), T40, median (IQR), n=6, control 19.1 (17.8 to 20.8), p=0.001, difference also present initially", "value": 9.7, "unit": "µm"}, {"measurement": "Effect on LPS-induced venule vasodilation", "setting": "mesenteric venules; UFP-101 150 nM kg^-1 i.v., LPS rats", "value": "reduced vasodilation of venules in response to LPS"}, {"measurement": "Plasma TNF-α and IL-1β in CLP", "setting": "plasma TNF-α and IL-1β", "value": "reduced plasma concentrations of TNF-α and IL-1β"}, {"measurement": "HPA stress response to LPS", "setting": "[4]", "value": "reduced the hypothalamic pituitary adrenal stress response to LPS"}, {"measurement": "Survival in CLP, UFP-101", "setting": "[5]", "value": "~65", "unit": "%"}, {"measurement": "Effect on MAP, i.c.v. mice", "setting": "MAP", "value": "no effect on MAP"}, {"measurement": "Heart rate and renal sympathetic nerve activity", "setting": "[6]", "value": "increased heart rate and renal sympathetic nerve activity"}, {"measurement": "MAP after PVN injection", "setting": "[6]", "value": "non-significant increase in MAP"}, {"measurement": "Macromolecular leak, T40, LPS + UFP-101", "setting": "[1]; 150nmol.kg^-1 UFP-101 i.v. in LPS rats, median (IQR), not significantly different from controls (p=0.063)", "value": -34.9, "unit": "%"}, {"measurement": "Effect on macromolecular leak, no LPS", "setting": "[1]; UFP-101 150 nmol kg^-1 i.v. alone, p=0.151", "value": "no effect"}, {"measurement": "Leukocyte rolling, T40, LPS + UFP-101", "setting": "[2]; 150nmol.kg^-1 UFP-101 i.v. in LPS rats, median (IQR), not significantly different from controls (p=0.117)", "value": 0, "unit": "per min"}, {"measurement": "Effect on leukocyte rolling, no LPS", "setting": "[2]; UFP-101 150 nmol kg^-1 i.v. alone, p=0.394", "value": "no effect"}, {"measurement": "Heart rate, T40", "setting": "heart rate; UFP-101 150 nM kg^-1 i.v. alone (no LPS), median (IQR), n=6, control 330 (308 to 330), p=0.04", "value": 375, "unit": "bpm"}, {"measurement": "Effect on LPS-induced heart rate increase", "setting": "heart rate; UFP-101 150 nM kg^-1 i.v. in LPS rats, T40, n=6, p=0.004", "value": "not altered by the addition of UFP-101"}, {"measurement": "Effect on LPS-induced tachycardia", "setting": "heart rate; UFP-101 i.v., LPS rats", "value": "no reversal of the tachycardia"}]}, {"compound": "CC(C)C[C@H](NC(=O)[C@H](CCCCN)NC(=O)[C@H](CCCNC(=N)N)NC(=O)[C@H](C)NC(=O)[C@H](CO)NC(=O)[C@H](CCCCN)NC(=O)[C@H](CCCNC(=N)N)NC(=O)[C@H](C)NC(=O)CNC(=O)[C@@H](NC(=O)[C@H](Cc1ccccc1)NC(=O)CNC(=O)CNC(=O)[C@@H](N)Cc1ccccc1)[C@@H](C)O)C(=O)N[C@@H](C)C(=O)N[C@@H](CC(N)=O)C(=O)N[C@@H](CCC(N)=O)C(=O)N[C@@H](CCCCNC(=S)Nc1ccc2c(c1)C(=O)OC21c2ccc(O)cc2Oc2cc(O)ccc21)C(N)=O", "note": "[FITC-N/OFQ, [Lys(FITC)^18]N/OFQ-NH2]", "values": [{"measurement": "Binding to mesenteric microvascular endothelium", "setting": "[7]; 200 nM kg^-1 FITC-N/OFQ into mesenteric artery, control rats", "value": "bound to specific sites on the endothelium of arterioles"}, {"measurement": "Time course of decay of FITC fluorescence with vs without N/OFQ", "setting": "[7]; gray level over 60 s, 200 nM kg^-1 FITC-N/OFQ with (T-15) and without (T0) 200 nM.kg^-1 N/OFQ", "value": "The time courses were significantly different"}]}]}
